Measurements taken from ChEMBL document CHEMBL1129324, “Tyrphostins. 5. Potent inhibitors of platelet-derived growth factor receptor tyrosine kinase: structure-activity relationships in quinoxalines, quinolines, and indole tyrphostins” (J Med Chem, 1996).

Molecular target: Platelet-derived growth factor receptor (Mus musculus, UniProt P05622+P26618)
Assay: Inhibitory activity against platelet-derived growth factor receptor tyrosine kinase in Swiss 3T3 cells
Assay type: cell-based

| IC50 [µM] | Compound |
| --- | --- |
| 100 | c1ccc(-c2nc3ccccc3nc2-c2ccccn2)nc1 |
| > 50 | c1ccc(-c2nc3ccccc3nc2-c2ccccc2)cc1 |
| > 100 | c1ccc2nc(-c3c[nH]c4ccccc34)cnc2c1 |
| > 50 | Cc1cc2nc(CSCCOCCSCc3nc4cc(C)c(C)cc4nc3-c3ccccc3)c(-c3ccccc3)nc2cc1C |
| > 100 | c1ccc(-c2ccc(-c3cnc4ccccc4n3)s2)cc1 |
| > 100 | c1coc(-c2nc3ccccc3nc2-c2ccco2)c1 |
| > 50 | Clc1cc2ncc(-c3ccccc3)nc2cc1Cl |
| 35 | c1ccc(-c2cnc3ncccc3n2)cc1 |
| 0.6 | Cc1cc2ncc(-c3ccc(O)c(O)c3)nc2cc1C |
| 1 | Cc1cc2nc(C(=O)O)c(-c3ccccc3)nc2cc1C |
| > 100 | CC(C)CCc1ccc(-c2cnc3ccccc3n2)s1 |
| > 50 | Cc1cc2nc(CSCCCSCc3nc4cc(C)c(C)cc4nc3-c3ccccc3)c(-c3ccccc3)nc2cc1C |
| > 100 | c1ccc2nc(-c3ccsc3)cnc2c1 |
| > 50 | Cc1cc2nc(CSCc3nc4cc(C)c(C)cc4nc3-c3ccccc3)c(-c3ccccc3)nc2cc1C |
| > 50 | Cc1cc2nc3[nH]c4ccc(Br)cc4c3nc2cc1C |
| > 50 | CCOP(=O)(Cc1nc2cc(C)c(C)cc2nc1-c1ccccc1)OCC |
| > 50 | Cc1cc2nc(Cl)c(-c3ccccc3)nc2cc1C |
| > 50 | Cc1cc2nc(C=O)c(-c3ccccc3)nc2cc1C |
| 100 | COc1cc2nc(-c3ccccc3)cnc2cc1O |
| > 100 | Cc1nc2ccccc2nc1C |
| > 50 | Cc1cc2nc(C)c(C)nc2cc1C |
| > 100 | Cc1cc2nc(-c3ccccn3)c(-c3ccccn3)nc2cc1C |
| > 50 | CCOC(=O)c1nc2cc(C)c(C)cc2nc1-c1ccccc1 |

| IC50 [µM] | Compound |
| --- | --- |
| 6 | O=C(c1ccccc1)c1ccc2ncc(-c3ccccc3)nc2c1 |
| > 50 | Cc1cc2nc(O)c(-c3ccccc3)[n+]([O-])c2cc1C |
| 100 | c1csc(-c2cnc3ccccc3n2)c1 |
| > 50 | COc1cc2nc(O)c(-c3ccccc3)nc2cc1OC |
| 90 | Cc1ccc2ncc(-c3ccccc3)nc2c1 |
| > 100 | Oc1cc2ncc(-c3ccccc3)nc2cc1O |
| 25 | O=[N+]([O-])c1ccc2ncc(-c3ccccc3)nc2c1 |
| 0.9 | c1ccc(-c2cnc3cc4ccccc4cc3n2)cc1 |
| > 100 | c1coc(-c2cnc3ccccc3n2)c1 |
| 10 | c1ccc(-c2cnc3ccccc3n2)cc1 |
| 10 | Cc1cc2nc(O)c(-c3ccccc3)nc2cc1C |
| > 100 | Cc1ccc(-c2cnc3ccccc3n2)s1 |
| > 50 | O=C(O)c1ccc2ncc(-c3ccccc3)nc2c1 |
| > 100 | Cc1nc2ccccc2nc1-c1ccccc1 |
| > 50 | CCOCc1nc2cc(C)c(C)cc2nc1-c1ccccc1 |
| > 50 | Cc1cc2nc(C)c(-c3ccccc3)nc2cc1C |
| 0.8 | COc1cc2ncc(-c3ccccc3)nc2cc1OC |
| > 50 | Nc1ncnc2ncc(-c3ccccc3)nc12 |
| > 50 | Cc1cc2nc(CN(C)C)c(-c3ccccc3)nc2cc1C |
| > 50 | Cc1cc2nc(CP(=O)(O)O)c(-c3ccccc3)nc2cc1C |
| > 50 | Cc1cc2nc(CBr)c(-c3ccccc3)nc2cc1C |
| > 50 | O=c1nc2[nH]c3ccccc3nc-2c(=O)[nH]1 [ALLOXAZINE] |
